These results are taken from PubChem BioAssay (NCI).

Some test systems named below: HCC-2998 colon; OVCAR-5 ovarian; SK-MEL-5 melanoma; U251 CNS; A498 renal.
Experiment in all cases: growth of human tumour cells (NCI), 48 h

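How tested: cells in 96-well plates exposed to compound for 48 hours at five concentrations. TGI is the concentration that stops growth completely.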

For the compound `Nn1c(Cc2ccc([N+](=O)[O-])cc2)n[nH]c1=O`, the TGI in the test with HCC-2998 colon, in the test on OVCAR-5 ovarian, with SK-MEL-5 melanoma and with U251 CNS was more than 100 µM in each case.

Turning to `COc1ccc(/C=C2\CCC(C)C3=C2N=c2s/c(=C/c4cccc(Br)c4)c(=O)n2C3c2ccc(OC)c(OC)c2)cc1OC` (configuration not stated), the TGI in the test with OVCAR-5 ovarian, in the test on SK-MEL-5 melanoma, with A498 renal and with U251 CNS was more than 100 µM each time.

In the case of `Cc1nc2c(=O)n(C)ncc2[nH]1`, the TGI in the test with OVCAR-5 ovarian, with SK-MEL-5 melanoma, with A498 renal and in the test with U251 CNS was more than 100 µM each time.

On to `Cc1ccnc(NC(NC(=O)c2ccccc2)(C(F)(F)F)C(F)(F)F)c1`, for which the TGI with HCC-2998 colon, with OVCAR-5 ovarian, with SK-MEL-5 melanoma and in the test with U251 CNS was more than 100 µM throughout.

`CCCC(=O)OC1C(CO)OC(n2cc(F)c(=O)[nH]c2=O)C1F` (configuration not stated): the TGI in the test on OVCAR-5 ovarian, in the test with SK-MEL-5 melanoma and with A498 renal was more than 100 µM each time.

As to `COc1cc(/C=c2\sc3n(c2=O)C(c2ccc(Cl)cc2)C2=C(CCCC2C)N=3)cc(OC)c1OC` (configuration not stated), the TGI in the test with OVCAR-5 ovarian, in the test on SK-MEL-5 melanoma, in the test with A498 renal and in the test with U251 CNS was more than 100 µM in each case.

`BrC(c1cccc2ccccc12)c1cccc2ccccc12`: the TGI in the test with OVCAR-5 ovarian is 84.9 µM; with SK-MEL-5 melanoma, 31.4 µM; in the test on A498 renal it was 31.4 µM; in the test with U251 CNS, 30.6 µM.

Regarding `C=C(C)[C@@H]1CCC2=C[C@H](OC2=O)[C@@]2(C)C[C@@H]2C2=CC(C)=C(O2)[C@H]1O`, the TGI with HCC-2998 colon, with OVCAR-5 ovarian, in the test with A498 renal and in the test on U251 CNS was more than 75 µM each time.

Take `COc1ccc2nc(-c3ccc(O)cc3)sc2c1`: the TGI in the test with OVCAR-5 ovarian amounted to 31.6 µM; in the test on SK-MEL-5 melanoma, 38 µM; in the test with A498 renal it was 85.7 µM; in the test on U251 CNS, 36.2 µM.

Consider `Cc1cc(S(=O)(=O)Nc2nc3ccccc3c(=O)n2N)c(S)cc1Cl`, for which the TGI in the test with HCC-2998 colon, in the test on OVCAR-5 ovarian, in the test on SK-MEL-5 melanoma and with U251 CNS was more than 100 µM throughout.

Turning to `C=C1C2C[C@@H]3O[C@H]4C[C@H]5O[C@@]6(C[C@@H]7O[C@]8(C[C@H](C)[C@@H]9O[C@@H]%10CC(CO)O[C@@H]%10C[C@@H]9O8)C[C@H](C)[C@@H]7O6)C[C@H]5O[C@H]4[C@H](C)[C@H]3OC(=O)C[C@H]3CC[C@@H]4OC5[C@H]6O[C@]7(CC[C@H]8CC(=C)[C@H](CC[C@@H](C[C@H]1C)O2)O8)CC6O[C@@H]5[C@@H](O7)[C@H]4O3` (some centres not stated), the TGI in the test with OVCAR-5 ovarian was more than 1 µM; in the test on SK-MEL-5 melanoma, 0.00332 µM; with A498 renal it was more than 1 µM; in the test on U251 CNS, more than 1 µM.

As for `Cc1ccc(S(=O)(=O)NNCNC(=O)c2ccccc2)cc1`, the TGI with HCC-2998 colon, with OVCAR-5 ovarian, in the test with SK-MEL-5 melanoma and in the test with U251 CNS was more than 100 µM each time.

As to `O=C1Oc2cc(O)cc(/C=C/c3ccc(O)cc3)c2[C@@]12c1c(O)cc(O)cc1OC2c1cccc(O)c1` (some centres not stated), the TGI is 46.2 µM in the test on HCC-2998 colon, 92.4 µM in the test on OVCAR-5 ovarian, 43.3 µM in the test with SK-MEL-5 melanoma and more than 100 µM in the test with U251 CNS.

In the case of `O=C(NCCCCCCNC(=O)c1cc(-c2ccccc2)nc2ccccc12)c1cc(-c2ccccc2)nc2ccccc12`, the TGI with OVCAR-5 ovarian, in the test on SK-MEL-5 melanoma, in the test with A498 renal and in the test on U251 CNS was more than 100 µM each time.

Turning to `CC(C)(C)OC(=O)N1C(c2cccnc2)=CC[C@H]2C3CC=C(c4cccnc4)[C@@]3(C)CC[C@@H]21` (some centres not stated), the TGI came out at 28.6 µM with OVCAR-5 ovarian, 4.18 µM in the test with SK-MEL-5 melanoma, 18.5 µM with A498 renal and 12 µM with U251 CNS.

In the case of `CCOC(=O)c1ccc(NCC#CCN2CCCCC2)cc1`, the TGI in the test on OVCAR-5 ovarian, in the test with SK-MEL-5 melanoma, in the test with A498 renal and in the test with U251 CNS was more than 100 µM throughout.

For the compound `Oc1ccc2c(c1)-c1c(c3ccccc3n1CCN1CCOCC1)CC2`, the TGI with OVCAR-5 ovarian was 61.3 µM; in the test with SK-MEL-5 melanoma, more than 100 µM; in the test on A498 renal it was more than 100 µM; in the test with U251 CNS, more than 100 µM.

As for `COI1NC(=O)c2ccccc21`, the TGI in the test with OVCAR-5 ovarian, with SK-MEL-5 melanoma, with A498 renal and with U251 CNS was more than 100 µM in each case.

In the case of `O=C(O)CN1C(=O)C(Cc2ccc(O)cc2)N=C(c2cccc(O)c2)c2ccccc21` (configuration not stated), the TGI with OVCAR-5 ovarian is more than 100 µM; in the test on A498 renal, 25.3 µM; in the test on U251 CNS, more than 100 µM.

For `Cc1ccccc1S(=O)(=O)Nn1cnc2ccc(S(=O)(=O)Nc3ccc(Cl)cc3)cc2c1=O`, the TGI with HCC-2998 colon, in the test with OVCAR-5 ovarian and in the test on U251 CNS was more than 100 µM in each case.
